Source: patent publication US11225462B2, “Crystal forms of oxypyridine amide derivative and preparation method therefor” (JIANGSU HENGRUI MEDICINE CO., LTD., priority 2018, dated 2022)

Key:
Assay type in all cases: physicochemical
[1] = DVS (dynamic vapor sorption) hygroscopicity characterization; settings: for mass increase under normal conditions: 25° C. and 60% RH; for hygroscopicity according to guidelines for drug hygroscopicity test in China Pharmacopoeia (2015 edition) / mass increase as the humidity increases: 25° C., 10% RH to 80% RH; for mass increase under accelerated test conditions: 70% RH; for mass increase under extreme conditions: 90% RH; for desorption process and adsorption process of the sample: humidity change from 0% to 95%
Experimental: DVS refers to dynamic vapor sorption and is determined using SMS DVS Advantage at 25° C., with the humidity change of 50%-95%-0%-95%-50% and the stepping of 10% (5% for the last step) (the specific humidity range is determined in accordance with the corresponding plot, and the methods listed herein are those most commonly used), and the standard for determination is as follow: dm/dt is not more than 0.02%, and Tmax is not more than 360 min.

[2] = Influencing factor experiments (light, high temperature, high humidity, 30 days); settings: for physical and chemical stability (conclusion): light, 75% RH or 90% RH for 30 days; for Crystal form: day 5 to day 10, time not clear
Experimental: Crystal forms A, B, D and F of the compound of formula (I) were spread and left open to the air, and under conditions of high temperature (40° C. and 60° C.), light (4500 Lux), high humidity (RH 75% and RH 90%), the stability thereof were investigated for a period of 30 days.

[3] = Long-term and accelerated stability experiments (3 months); settings: for physical and chemical stability (conclusion): long-term (25° C., 60% RH) and accelerated (40° C., 75% RH) conditions for 3 months
Experimental: The long-term (25° C., 60% RH) and accelerated (40° C., 75% RH) stability of crystal form A and crystal form F of the compound of formula (I) were investigated for 3 months.

For CCC(=O)c1ccc(Cl)cc1-c1cc(=O)n([C@@H](CCOC(C)(C)C)C(=O)Nc2ccc(C(=O)O)cc2)cc1OC [Crystal form A, (S)-4-(4-(tert-butoxy)-2-(4-(5-chloro-2-propionylphenyl)-5-methoxy-2-oxopyridin-1(2H)-yl)butanamido)benzoic acid], the “mass increase under normal conditions” value [1] was “about 1.156%”, the “hygroscopicity according to guidelines for drug hygroscopicity test in China Pharmacopoeia (2015 edition)” value (“hygroscopicity according to guidelines” below) [1] was “slightly hygroscopic (less than 2% but not less than 0.2%)” and the “mass increase as the humidity increases” value [1] was “about 1.781%”. The “mass increase under accelerated test conditions” value [1] was “about 1.479%”, the “mass increase under extreme conditions” value [1] was “about 2.199%” and the “crystal form before and after DVS detection (XRPD comparison)” value [1] was “unchanged”. For the same molecule, the “desorption process and adsorption process of the sample” value [1] was “basically coincide”, the “% Purity” value ([2]; 40° C., 5 days) was 98.74% and the Color and trait ([2]; 40° C., 5 days) was “Yellow solid”. The “% Purity” value ([2]; 40° C., 10 days) was 98.70%, the Color and trait ([2]; 40° C., 10 days) was “Yellow solid” and the “% Purity” value ([2]; 40° C., 30 days) was 98.48%. For the same molecule, the Color and trait ([2]; 40° C., 30 days) was “Yellow solid”, the “% Purity” value ([2]; 60° C., 5 days) was 98.73% and the Color and trait ([2]; 60° C., 5 days) was “Yellow solid”. For the same molecule, the “% Purity” value ([2]; 60° C., 10 days) was 98.68%, the Color and trait ([2]; 60° C., 10 days) was “Yellow solid” and the “% Purity” value ([2]; 60° C., 30 days) was 98.50%. The Color and trait ([2]; 60° C., 30 days) was “Yellow solid”, the “% Purity” value ([2]; 4500 Lux, 5 days) was 98.74% and the Color and trait ([2]; 4500 Lux, 5 days) was “Yellow solid”. The “% Purity” value ([2]; 4500 Lux, 10 days) was 98.74%, the Color and trait ([2]; 4500 Lux, 10 days) was “Yellow solid” and the “% Purity” value ([2]; 4500 Lux, 30 days) was 98.75%. The Color and trait ([2]; 4500 Lux, 30 days) was “Yellow solid”, the “% Purity” value ([2]; Initial condition, day 0) was 98.76% and the Color and trait ([2]; Initial condition, day 0) was “Yellow solid”. For the same molecule, the “% Purity” value ([2]; RH 75%, 5 days) was 98.76%, the “% Weight gain” value ([2]; RH 75%, 5 days) was 1.15% and the Color and trait ([2]; RH 75%, 5 days) was “Yellow solid”. The “% Purity” value ([2]; RH 75%, 10 days) was 98.76%, the “% Weight gain” value ([2]; RH 75%, 10 days) was 3.30% and the Color and trait ([2]; RH 75%, 10 days) was “Yellow solid”. The “% Purity” value ([2]; RH 75%, 30 days) was 98.76%, the “% Weight gain” value ([2]; RH 75%, 30 days) was 5.85% and the Color and trait ([2]; RH 75%, 30 days) was “Yellow solid”. The “% Purity” value ([2]; RH 90%, 5 days) was 98.75%, the “% Weight gain” value ([2]; RH 90%, 5 days) was 3.18% and the Color and trait ([2]; RH 90%, 5 days) was “Yellow solid”. For the same molecule, the “% Purity” value ([2]; RH 90%, 10 days) was 98.75%, the “% Weight gain” value ([2]; RH 90%, 10 days) was 8.14% and the Color and trait ([2]; RH 90%, 10 days) was “Yellow solid”. The “% Purity” value ([2]; RH 90%, 30 days) was 98.76%, the “% Weight gain” value ([2]; RH 90%, 30 days) was 11.37% and the Color and trait ([2]; RH 90%, 30 days) was “Yellow solid”. The “physical and chemical stability (conclusion)” value ([2]; 40° C., 60° C.) was “good physical and chemical stability”, the “% Purity 1 month” value ([3]; 25° C., 60% RH) was 98.80% and the “% Purity 2 months” value ([3]; 25° C., 60% RH) was 98.77%. The “% Purity 3 months” value ([3]; 25° C., 60% RH) was 98.76%, the “% Purity Initial condition” value ([3]; 25° C., 60% RH) was 98.79% and the “% Purity 1 month” value ([3]; 40° C., 75% RH) was 98.79%. For the same molecule, the “% Purity 2 months” value ([3]; 40° C., 75% RH) was 98.75%, the “% Purity 3 months” value ([3]; 40° C., 75% RH) was 98.74% and the “% Purity Initial condition” value ([3]; 40° C., 75% RH) was 98.79%. For the same molecule, the “physical and chemical stability (conclusion)” value [3] was “good physical and chemical stability”.
In the case of CCC(=O)c1ccc(Cl)cc1-c1cc(=O)n([C@@H](CCOC(C)(C)C)C(=O)Nc2ccc(C(=O)O)cc2)cc1OC [Crystal form D, (S)-4-(4-(tert-butoxy)-2-(4-(5-chloro-2-propionylphenyl)-5-methoxy-2-oxopyridin-1(2H)-yl)butanamido)benzoic acid], the “mass increase under normal conditions” value [1] was “about 2.143%”, the “hygroscopicity according to guidelines” value [1] was “hygroscopic (less than 15% but not less than 2%)” and the “mass increase as the humidity increases” value [1] was “about 2.420%”. The “mass increase under accelerated test conditions” value [1] was “about 2.494%”, the “mass increase under extreme conditions” value [1] was “about 3.422%” and the “crystal form before and after DVS detection (XRPD comparison)” value [1] was “crystallinity of the crystal form become worse”. For the same molecule, the “desorption process and adsorption process of the sample” value [1] was “do not coincide”, the “% Purity” value ([2]; 40° C., 5 days) was 99.53% and the Color and trait ([2]; 40° C., 5 days) was “Off-white”. For the same molecule, the “% Purity” value ([2]; 40° C., 10 days) was 99.02%, the Color and trait ([2]; 40° C., 10 days) was “Off-white” and the “% Purity” value ([2]; 40° C., 30 days) was 98.95%. For the same molecule, the Color and trait ([2]; 40° C., 30 days) was “Off-white”, the Crystal form ([2]; 40° C.) was “Amor-” and the “% Purity” value ([2]; 60° C., 5 days) was 99.40%. The Color and trait ([2]; 60° C., 5 days) was “Off-white”, the “% Purity” value ([2]; 60° C., 10 days) was 99.31% and the Color and trait ([2]; 60° C., 10 days) was “Off-white”. For the same molecule, the “% Purity” value ([2]; 60° C., 30 days) was 99.09%, the Color and trait ([2]; 60° C., 30 days) was “Off-white” and the Crystal form ([2]; 60° C.) was “Amor-”. For the same molecule, the “% Purity” value ([2]; 4500 Lux, 5 days) was 99.58%, the Color and trait ([2]; 4500 Lux, 5 days) was “Off-white” and the “% Purity” value ([2]; 4500 Lux, 10 days) was 99.57%. The Color and trait ([2]; 4500 Lux, 10 days) was “Off-white”, the “% Purity” value ([2]; 4500 Lux, 30 days) was 99.26% and the Color and trait ([2]; 4500 Lux, 30 days) was “Off-white”. For the same molecule, the Crystal form ([2]; 4500 Lux) was “Amor-”, the “% Purity” value ([2]; Initial condition, day 0) was 99.59% and the Color and trait ([2]; Initial condition, day 0) was “Off-white”. The “% Purity” value ([2]; RH 75%, 5 days) was 99.56%, the “% Weight gain” value ([2]; RH 75%, 5 days) was 5.30% and the Color and trait ([2]; RH 75%, 5 days) was “Off-white”. For the same molecule, the “% Purity” value ([2]; RH 75%, 10 days) was 99.53%, the “% Weight gain” value ([2]; RH 75%, 10 days) was 5.48% and the Color and trait ([2]; RH 75%, 10 days) was “Off-white”. For the same molecule, the “% Purity” value ([2]; RH 75%, 30 days) was 99.55%, the “% Weight gain” value ([2]; RH 75%, 30 days) was 5.56% and the Color and trait ([2]; RH 75%, 30 days) was “Off-white”. The Crystal form ([2]; RH 75%) was “Amor-”, the “% Purity” value ([2]; RH 90%, 5 days) was 99.57% and the “% Weight gain” value ([2]; RH 90%, 5 days) was 7.45%. For the same molecule, the Color and trait ([2]; RH 90%, 5 days) was “Off-white”, the “% Purity” value ([2]; RH 90%, 10 days) was 99.54% and the “% Weight gain” value ([2]; RH 90%, 10 days) was 8.67%. For the same molecule, the Color and trait ([2]; RH 90%, 10 days) was “Off-white”, the “% Purity” value ([2]; RH 90%, 30 days) was 99.55% and the “% Weight gain” value ([2]; RH 90%, 30 days) was 9.53%. For the same molecule, the Color and trait ([2]; RH 90%, 30 days) was “Off-white” and the Crystal form ([2]; RH 90%) was “Amor-”.
For CCC(=O)c1ccc(Cl)cc1-c1cc(=O)n([C@@H](CCOC(C)(C)C)C(=O)Nc2ccc(C(=O)O)cc2)cc1OC [Crystal form F, (S)-4-(4-(tert-butoxy)-2-(4-(5-chloro-2-propionylphenyl)-5-methoxy-2-oxopyridin-1(2H)-yl)butanamido)benzoic acid], the “mass increase under normal conditions” value [1] was “about 0.0457%”, the “hygroscopicity according to guidelines” value [1] was “hardly hygroscopic (less than 2%)” and the “mass increase as the humidity increases” value [1] was “about 0.1464%”. The “mass increase under accelerated test conditions” value [1] was “about 0.0701%”, the “mass increase under extreme conditions” value [1] was “about 0.2744%” and the “crystal form before and after DVS detection (XRPD comparison)” value [1] was “unchanged”. For the same molecule, the “desorption process and adsorption process of the sample” value [1] was “basically coincide”, the “% Purity” value ([2]; 40° C., 5 days) was 99.67% and the “% Purity” value ([2]; 40° C., 10 days) was 99.62%. For the same molecule, the “% Purity” value ([2]; 40° C., 30 days) was 99.57%, the “% Purity” value ([2]; 60° C., 5 days) was 99.68% and the “% Purity” value ([2]; 60° C., 10 days) was 99.65%. The “% Purity” value ([2]; 60° C., 30 days) was 99.59%, the “% Purity” value ([2]; 4500 Lux, 5 days) was 99.66% and the “% Purity” value ([2]; 4500 Lux, 10 days) was 99.64%. The “% Purity” value ([2]; 4500 Lux, 30 days) was 99.64%, the “% Purity” value ([2]; Initial condition, day 0) was 99.67% and the “% Purity” value ([2]; RH 75%, 5 days) was 99.65%. The “% Weight gain” value ([2]; RH 75%, 5 days) was 5.23%, the “% Purity” value ([2]; RH 75%, 10 days) was 99.63% and the “% Weight gain” value ([2]; RH 75%, 10 days) was 5.34%. For the same molecule, the “% Purity” value ([2]; RH 75%, 30 days) was 99.62%, the “% Weight gain” value ([2]; RH 75%, 30 days) was 10.03% and the “% Purity” value ([2]; RH 90%, 5 days) was 99.66%. For the same molecule, the “% Weight gain” value ([2]; RH 90%, 5 days) was 7.26%, the “% Purity” value ([2]; RH 90%, 10 days) was 99.63% and the “% Weight gain” value ([2]; RH 90%, 10 days) was 8.40%. For the same molecule, the “% Purity” value ([2]; RH 90%, 30 days) was 99.65%, the “% Weight gain” value ([2]; RH 90%, 30 days) was 12.83% and the “physical and chemical stability (conclusion)” value ([2]; 40° C., 60° C.) was “good physical and chemical stability”. The “% Purity 1 month” value ([3]; 25° C., 60% RH) was 99.68%, the “% Purity 2 months” value ([3]; 25° C., 60% RH) was 99.65% and the “% Purity 3 months” value ([3]; 25° C., 60% RH) was 99.65%. The “% Purity Initial condition” value ([3]; 25° C., 60% RH) was 99.69%, the “% Purity 1 month” value ([3]; 40° C., 75% RH) was 99.68% and the “% Purity 2 months” value ([3]; 40° C., 75% RH) was 99.67%. For the same molecule, the “% Purity 3 months” value ([3]; 40° C., 75% RH) was 99.66%, the “% Purity Initial condition” value ([3]; 40° C., 75% RH) was 99.69% and the “physical and chemical stability (conclusion)” value [3] was “good physical and chemical stability”.
